Experimental data reported in US11753626B2, “Tumor cell suspension cultures and related methods” (Beijing Percans Oncology Co., Ltd., priority 2016, dated 2023).

system: tumor cell clusters from colorectal cancer patients; experiment: ex vivo drug sensitivity assay of tumor cell clusters in suspension culture (Edu incorporation); type: cell-based, human; settings: FIG. 4; test conditions of FIG. 3B; short-term suspension culture in defined growth medium
Experimental: Briefly, the non-tumor tissues and the necrotic fractions were carefully removed from the tumor specimen. The tumor tissues were cut into small pieces less than 1 mm in diameter using scissors. Minced tumor fractions were transferred into a sterile 100-ml triangle glass flask loaded with a magnet stir bar. A 10-15 ml digestion media containing 0.25 U/ml Liberase DH was added into the minced tumor tissues to start enzyme digestion. The enzyme mixture was incubated at 37° C. for 1-2 hours with moderate stirring. The partially digested tumor cell clusters were filtered through a 100-μm cell retainer. The filtrates were re-filtered through a 40-μm cell restrainer. The tumor cell clusters retained on the 40-μm cell restrainer was collected, wash twice with HBSS, then re-suspended in a defined growth media supplemented with cell growth factors and small molecule inhibitors.
For ex vivo drug sensitivity assays, the tumor cell clusters were recovered in a defined growth medium overnight. The defined growth medium was StemPro hESC SFM supplement with Nicotinamide, Wnt3A, Noggin, R-spondin-1, and Y27632. The tumor cell clusters were then exposed to drug (e.g., Docetaxel at 2 μM (Cmax)) for 24 hours before the drug was washed away. Following exposure with drug, the tumor cell clusters were labeled with 5-ethynyl-2′-deoxyuridine (Edu) to assess the tumor cell proliferation rates. The labeling started at 48 hours after the drug exposure and continued for 96 hours. In the control group, tumor cell clusters received no drug exposure with media change, but were similarly labeled with Edu. The labeled tumor cell clusters were dissociated into single cells and fixed. The fixed cells were stained with Hoechst 33342 in PBS containing 0.2% Triton X-100 overnight at 4° C. The incorporated Edu was detected by Click-iT reaction where fixed cells were incubated with a reaction mixture containing 1× Click-iT Edu reaction buffer, CuSO4, and azide-conjugated Alexa Fluor dye in the dark. The stained cells were washed with PBS before being distributed into a black wall plate for image acquisition and analysis.
For image acquisition and analysis, the stained tumor cells were imaged by a high-content screening (HCS) platform (Thermo Scientific Cellomics ArrayScan XTi HCS reader). The 10× objective was used to collect images. Twenty-five fields were imaged for each well, and more than 3000 cells were captured for the analysis. From the images two fluorescent signals were obtained from the HCS reader. Blue fluorescent signals recorded nucleus signals stained with Hoechst 33342, and green fluorescent signal detected the Edu incorporated in newly synthesized DNA. The Edu positive subpopulation cells percentage was calculated as percent of the total cell counts. […]

Compound | growth of tumor cell clusters (inhibition by tested drug)
C[C@@H](Oc1cc(-c2cnn(C3CCNCC3)c2)cnc1N)c1c(Cl)ccc(F)c1Cl [crizotinib] | not completely inhibited
CNC(=O)c1cc(Oc2ccc(NC(=O)Nc3ccc(Cl)c(C(F)(F)F)c3)cc2)ccn1 [sorafenib] | not completely inhibited
C#Cc1cccc(Nc2ncnc3cc(OCCOC)c(OCCOC)cc23)c1 [erlotinib] | not completely inhibited
O=C1[O][Pt]2([NH][C@@H]3CCCC[C@H]3[NH]2)[O]C1=O [oxaliplatin] | not completely inhibited
